Measurements taken from patent US12509460B2 (Skyhawk Therapeutics, Inc., priority 2019, dated 2025).
Like-named read-outs stand apart in the source and are kept apart here.

How the values were obtained:
[1] = Quantitative splicing assay (HTT), qPCR; type: cell-based, human; details: Homo sapiens, GM04724, 24 h, GM04724 lymphoblasts, read-out: HTT Splicing: E49-50 EC50
Method: Example A9: Quantitative Splicing Assay (HTT)
GM04724 (CAG 70/20) Huntington's disease patient lymphoblasts (Coriell) are plated in 96-well v-bottom plates at 50,000 cells/well. Immediately after plating, cells are dosed with compound for 24 h at concentrations ranging from 2.5 uM to 0.15 nM (0.1% DMSO). Treated cells are lysed and cDNA synthesized using the Fast Advanced Cells-to-Ct kit (Thermofisher A35378) according to the manufacturer's instructions. 2 uL of each cDNA are used in qPCR reactions to confirm the compound-induced inclusion of a cryptic exon within intron 49 of the Huntingtin (HTT) transcripts. The qPCR reactions are prepared in 384-well plates in 10 uL volume, using TagMan™ Fast Advanced Master Mix [ThermoFisher, 4444965] with primers and probes shown in the table below. Reactions are run in a Quant studio 6 qPCR instrument with default settings.

[2] = test system: MDR1-MDCK cell monolayers; experiment: Blood-brain-barrier (BBB) penetration potential via MDCK-MDR1 permeability assay
Method: (§1) Example A13: Assessment of Blood-Brain-Barrier (BBB) Penetration Potential Via an MDCK-MDR1 Permeability Assay
(§2) The permeability of compounds is assessed for BBB penetration potential by use of an MDCK-MDR1 assay (Catalog EA203) performed by Absorption Systems, Exton PA.
(§3) Experimental Procedure: MDR1-MDCK cell monolayers are grown to confluence on collagen-coated, microporous membranes in 12-well assay plates. The permeability assay buffer is Hanks' balanced salt solution containing 10 mM HEPES and 15 mM glucose at a pH of 7.4. The buffer in the receiver chamber also contained 1% bovine serum albumin. The dosing solution concentration is 5 μM of test article in the assay buffer. Cell monolayers are dosed on the apical side (A-to-B) or basolateral side (B-to-A) and incubated at 37° C. with 5% CO2 in a humidified incubator. Samples are taken from the donor and receiver chambers at 120 minutes. Each determination is performed in duplicate. The flux of lucifer yellow is also measured post-experimentally for each monolayer to ensure no damage is inflicted to the cell monolayers during the flux period. All samples are assayed by LC-MS/MS using electrospray ionization.
(§4) The apparent permeability (Papp) and percent recovery are calculated as follows:
(§5) Analytical Method: Liquid Chromatography. Column: Waters ACQUITY UPLC BEH Phenyl 30 ×2.1 mm, 1.7 μm; M.P. Buffer. 25 mM ammonium formate buffer, pH 3.5; Aqueous Reservoir (A): 90% water, 10% buffer, Organic Reservoir (B): 90% acetonitrile, 10% buffer, Flow Rate: 0.7 mL/minute; Gradient Program:
(§6) • Total Run Time: 1.00 minute • Autosampler. 2 μL injection volume • Wash1: water/methanol/2-propanol:1/1/1; with 0.2% formic acid • Wash2: 0.1% formic acid in water • Brain Penetration • Potential Classification: A-B Papp≥3.0 and Efflux Ratio <3.0: High • A-B Papp≥3.0 and 10≥Efflux Ratio >3.0: Moderate • A-B Papp≥3.0 and Efflux Ratio≥10: Low • A-B Papp<3.0: Low

[3] = test system: SMN FL and SMN Δ7 in spinal muscular atrophy (SMA) patient fibroblasts (GM03813, Coriell); experiment: Quantitative splicing assay (SMN), qPCR; type: cell-based, human; details: SMA patient fibroblasts GM03813, 24 h, qPCR, read-out: SMN2 Splicing FL EC50
Method: Spinal muscular atrophy (SMA) patient fibroblasts (GM03813, Coriell) are plated in 96-well plates at 50,000 cells/well. […] Treated cells are lysed and cDNA synthesized using the Fast Advanced Cells-to-Ct kit (Thermofisher A35378) according to the manufacturer's instructions. 2 μL of each cDNA are used in qPCR reactions. […] Reactions are run in a Quant Studio 6 qPCR instrument with default settings.

[4] = test system: mHTT protein in GM04724 (CAG 70/20) Huntington's disease patient lymphoblast cells; experiment: mHTT protein assay, 2B7-MW1 assay via Mesoscale Discovery (MSD); type: cell-based, human
Procedure, shortened: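 Signal from the 2B7-MW1 antibody pair on MSD, rising with polyQ length and smaller HTT fragments, measured mHTT after 48 h compound exposure (0.6 nM–10 μM) in GM04724 cells. A parallel replicate plate gave CellTiter Glo viability.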

[5] = test system: SMN protein in spinal muscular atrophy (SMA) patient fibroblasts (GM03813, Coriell); experiment: SMN protein assay, Mesoscale Discovery (MSD); type: cell-based, human; details: for EC50: read-out: SMN2 protein EC50
Procedure, shortened: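 Absolute SMN levels were quantified by MSD against an SMN protein standard curve (1 μg/ml to 19.5 pg/ml) run on each plate. Samples were lysates of GM03813 patient fibroblasts (7000 cells/well) treated 48 hours with compound doses from 2.5 μM down to 0.6 nM.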

MDR1 = experiment: Blood-brain-barrier (BBB) penetration potential via MDCK-MDR1 permeability assay; details: dog, MDCK-MDR1, pH 7.4, MDCK-MDR1: Efflux
Method: as §1, §2, §3, §4, §5, §6

MDR1 (P-gp) = experiment: as above; details: dog; for Papp A→B at 120 min, 5 μM: MDCK-MDR1, pH 7.4, MDCK-MDR1: Papp A-B; for Papp B→A at 120 min, 5 μM: MDCK-MDR1, pH 7.4, MDCK-MDR1: Papp B-A
Method: as §1, §2, §3, §4, §5, §6

[6] = GM04724 Huntington's disease patient lymphoblasts
[7] = SMA patient fibroblasts GM03813, 48 hours, MSD

Row | Compound | EC50 ([1]; qPCR) [nM] | MDCK-MDR1: % Recov A-B ([2]; A-B direction) [%] | MDCK-MDR1: % Recov B-A ([2]; B-A direction) [%] | EC50 [4, 6] [nM] | efflux ratio at 120 min, 5 μM (MDR1; efflux ratio) | Papp A→B at 120 min, 5 μM (MDR1 (P-gp); A-B direction) [×10⁻⁶ cm/s] | Papp B→A at 120 min, 5 μM (MDR1 (P-gp); B-A direction) [×10⁻⁶ cm/s] | EC50 [5, 7] [nM] | also measured
1 | COc1cc(-c2ccc(-c3ccc(N(C)[C@H]4CC5N[C@@H](C4)CC5(F)F)nn3)c(O)c2)cnn1 (single isomer, unassigned) [Compound 2B] | 0.01 to 15 | 54 | 84 | 0.01 to 15 | – | – | – | – | MDCK-MDR1: Papp A-B ([2]; A-B direction): 9.99 10^−6, cm/s; MDCK-MDR1: Papp B-A ([2]; B-A direction): 52.8 10^−6, cm/s; MDCK-MDR1: Efflux ([2]; efflux ratio): 5; EC50 [3]: 0.01 to 15 nM; SMN2 protein EC50 [5, 7]: E (501 ≤ E ≤ 10.000)
2 | CN(c1ccc(-c2cc3cnccc3cc2O)nn1)[C@@H]1C[C@H]2CC[C@H](N2)[C@@H]1F (single isomer, unassigned) [Compound 7A] | 16 to 50 | 65 | 75 | 0.01 to 15 | 6 | 3.31 | 20.1 | 0.01 to 15 | EC50 [3]: 16 to 50 nM
3 | Cc1ccc(-c2ccc(-c3ccc(N(C)[C@H]4C[C@@H]5CC[C@@H](N5)[C@H]4F)nn3)c(O)c2)nn1 (single isomer, unassigned) [Compound 25B] | 16 to 50 | 105 | 108 | 16 to 50 | 29 | 1.61 | 46.8 | 0.01 to 15 | EC50 ([3]; Homo sapiens, Fibroblast, 24 h): 16 to 50 nM
4 | Cc1nc2cc(O)c(-c3ccc(N(C)[C@H]4C[C@@H]5CC[C@@H](N5)[C@H]4F)nn3)cc2o1 (single isomer, unassigned) [Compound 40B] | 0.01 to 15 | 67 | 99 | 0.01 to 15 | 16 | 4.71 | 75.8 | – | EC50 ([3]; Homo sapiens, Fibroblast, 24 h): 16 to 50 nM
5 | CN(c1ccc(-c2ccc(-n3nccn3)cc2O)nn1)[C@H]1C[C@@H]2CCC[C@@H](N2)[C@H]1F [Compound 5B, 2-(6-(((1R,2R,3S,5S)-2-fluoro-9-azabicyclo[3.3.1]nonan-3-yl)(methyl)amino)pyridazin-3-yl)-5-(2H-1,2,3-triazol-2-yl)phenol] | 0.01 to 15 | 30 | 52 | 0.01 to 15 | 2 | 5.84 | 9.91 | 101 to 500 | –
6 | CN(c1ccc(-c2ccc(-n3ccnc3)cc2O)nn1)[C@@H]1C[C@H]2CC(F)(F)[C@@H](C1)N2 [Compound 13A, 2-(6-(((1S,3R,5R)-6,6-difluoro-8-azabicyclo[3.2.1]octan-3-yl)(methyl)amino)pyridazin-3-yl)-5-(1H-imidazol-1-yl)phenol] | 0.01 to 15 | 92 | 86 | 16 to 50 | 6 | 8.7 | 50.5 | 0.01 to 15 | –
7 | CN(c1ccc(-c2ccc(-c3cnn(C(F)F)c3)cc2O)nn1)[C@@H]1C[C@H]2CC[C@H](N2)[C@@H]1F [Compound 20A, 5-(1-(difluoromethyl)-1H-pyrazol-4-yl)-2-(6-(((1S,2S,3R,5R)-2-fluoro-8-azabicyclo[3.2.1]octan-3-yl)(methyl)amino)pyridazin-3-yl)phenol] | 16 to 50 | 47 | 71 | 16 to 50 | 9 | 4.68 | 39.9 | 16 to 50 | –
8 | CN(c1ccc(-c2ccc(-c3cnn(C(F)F)c3)cc2O)nn1)[C@H]1C[C@@H]2CC[C@@H](N2)[C@H]1F [Compound 20B, 5-(1-(difluoromethyl)-1H-pyrazol-4-yl)-2-(6-(((1R,2R,3S,5S)-2-fluoro-8-azabicyclo[3.2.1]octan-3-yl)(methyl)amino)pyridazin-3-yl)phenol] | 0.01 to 15 | 45 | 65 | 0.01 to 15 | 11 | 3.59 | 39.2 | – | SMN2 protein EC50 [5, 7]: E (501 ≤ E ≤ 10.000)
9 | CN(c1ccc(-c2ccc(-c3nnco3)cc2O)nn1)[C@@H]1C[C@H]2CC[C@H](N2)[C@@H]1F [Compound 44A, 2-(6-(((1S,2S,3R,5R)-2-fluoro-8-azabicyclo[3.2.1]octan-3-yl)(methyl)amino)pyridazin-3-yl)-5-(1,3,4-oxadiazol-2-yl)phenol] | 16 to 50 | 87 | 86 | 0.01 to 15 | 6 | 8.12 | 50.9 | 101 to 500 | –
10 | CN(c1ccc(-c2cc3ncn(C)c(=O)c3cc2O)nn1)[C@@H]1C[C@H]2CC[C@H](N2)[C@@H]1F [Compound 51A, 7-(6-(((1S,2S,3R,5R)-2-fluoro-8-azabicyclo[3.2.1]octan-3-yl)(methyl)amino)pyridazin-3-yl)-6-hydroxy-3-methylquinazolin-4(3H)-one] | 0.01 to 15 | 94 | 86 | 0.01 to 15 | 47 | 0.81 | 38 | – | SMN2 protein EC50 [5, 7]: E (501 ≤ E ≤ 10.000)
11 | CN(c1ccc(-c2cc3ccncc3s2)nn1)[C@@H]1C[C@H]2CC[C@H](N2)[C@@H]1F [Compound 65A, (1S,2S,3R,5R)-2-fluoro-N-methyl-N-(6-(thieno[2,3-c]pyridin-2-yl)pyridazin-3-yl)-8-azabicyclo[3.2.1]octan-3-amine] | 10 to 501 | 94 | 93 | 101 to 500 | 9 | 5.82 | 50.5 | 51 to 100 | –
12 | CN(c1ccc(-c2cc3ccncc3s2)nn1)[C@H]1C[C@@H]2CC[C@@H](N2)[C@H]1F [Compound 65B, (1R,2R,3S,5S)-2-fluoro-N-methyl-N-(6-(thieno[2,3-c]pyridin-2-yl)pyridazin-3-yl)-8-azabicyclo[3.2.1]octan-3-amine] | 101 to 500 | 84 | 87 | 51 to 100 | 8 | 6.9 | 54.6 | 16 to 50 | –
13 | CN(c1ccc(-c2cc(C#N)c(F)cc2O)nn1)[C@H]1C[C@@H]2CC[C@@H](N2)[C@H]1F [Compound 72B, 2-fluoro-5-(6-(((1R,2R,3S,5S)-2-fluoro-8-azabicyclo[3.2.1]octan-3-yl)(methyl)amino)pyridazin-3-yl)-4-hydroxybenzonitrile] | 101 to 500 | 78 | 74 | 101 to 500 | 3 | 10.9 | 36.4 | 51 to 100 | –
14 | CN(c1ccc(-c2cc3cnccc3cc2O)nn1)[C@@H]1C[C@H]2CCC[C@H](N2)[C@@H]1F [Compound 121A, 7-(6-(((1S,2S,3R,5R)-2-fluoro-9-azabicyclo[3.3.1]nonan-3-yl)(methyl)amino)pyridazin-3-yl)isoquinolin-6-ol] | – | – | – | – | – | – | – | – | EC50 [1]: 51 to 100 nM; efflux ratio at 120 min, 5 μM (MDR1): 11; Papp A→B at 120 min, 5 μM (MDR1 (P-gp); A-B): 2.65 ×10⁻⁶ cm/s; Papp B→A at 120 min, 5 μM (MDR1 (P-gp); B-A): 29.8 ×10⁻⁶ cm/s; MDCK-MDR1: % Recov A-B ([2]; A-B): 81%; MDCK-MDR1: % Recov B-A ([2]; B-A): 95%; EC50 ([4]; GM04724 (CAG 70/20) Huntington's disease patient lymphoblasts): 16 to 50 nM; SMN2 protein EC50 ([5]; SMA patient fibroblasts (GM03813), 48 hours): E (501 ≤ E ≤ 10.000)
